# From patent publication US10316017B2, “COT modulators and methods of use thereof” (Gilead Sciences, Inc., priority 2015, dated 2019)
# Key:
# [1] = molecular target: T1, human Cot catalytic domain (30-397 amino acids) (Homo sapiens, UniProt P41279); assay: High Throughput Cot Biochemical Assay (KinEASE TR-FRET); details: Cot KinEASE TR-FRET (HTRF) biochemical assay, 400 μM ATP; read-out: IC50 HTRF
# T1 construct: Purified recombinant human Cot catalytic domain (30-397 amino acids) was purchased from Cama Biosciences; purchased Cama Biosciences (so in the source)
# Outline: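 TR-FRET readout: Eu-labeled phospho-specific antibody binds XL665-tagged STK3 peptide after phosphorylation by Cot (aa 30-397, 5 nM). Conditions: 400 μM ATP, 1 μM peptide, MOPS pH 7.0 buffer with MgOAc, DTT, BSA, NP-40, glycerol; 0.1% DMSO.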
# [2] = system: TNFα production in LPS-stimulated human monocytes; assay: Cot Monocyte TNFα Cell Based Assay; details: Homo sapiens, Monocyte, TNFα in LPS-stimulated human monocytes; read-out: EC50 TNF
# Outline: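 TR-FRET read-out of total secreted TNFα, normalized as % control (unstimulated = 0%, LPS-stimulated = 100%). Cells (5,000/well) were exposed to compound 1 h at 37 °C, then to 50 pg/ml LPS for a further 4 h.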
# T1 sequence (P41279 30-397): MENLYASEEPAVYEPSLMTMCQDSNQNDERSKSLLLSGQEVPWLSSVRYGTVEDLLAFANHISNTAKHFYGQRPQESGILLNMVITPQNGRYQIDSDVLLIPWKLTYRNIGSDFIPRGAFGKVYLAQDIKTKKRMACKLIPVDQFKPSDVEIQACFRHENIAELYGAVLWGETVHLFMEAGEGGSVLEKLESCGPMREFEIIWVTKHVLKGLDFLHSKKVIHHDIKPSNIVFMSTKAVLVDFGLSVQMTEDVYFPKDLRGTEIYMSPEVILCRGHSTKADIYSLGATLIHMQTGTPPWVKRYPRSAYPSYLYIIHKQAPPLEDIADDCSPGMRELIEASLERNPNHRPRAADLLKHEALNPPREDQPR
SMILES,IC50 [1],EC50 [2]
"CC(C)n1cc([C@@H](Nc2cc(Cl)c3ncc(C#N)c(N[C@@H](c4ccccc4)C(F)(F)F)c3c2)c2ccc(F)cc2)nn1 [Example 364, 8-chloro-6-(((S)-(4-fluorophenyl)(1-isopropyl-1H-1,2,3-triazol-4-yl)methyl)amino)-4-(((S)-2,2,2-trifluoro-1-phenylethyl)amino)quinoline-3-carbonitrile]",0.048 µM,0.631 µM
"CC[C@@H](Nc1c(C#N)cnc2c(Cl)cc(N[C@@H](c3ccc(F)cc3)c3cn(C(C)C)nn3)cc12)c1ccc(C)cc1 [Example 365, 8-chloro-6-(((S)-(4-fluorophenyl)(1-isopropyl-1H-1,2,3-triazol-4-yl)methyl)amino)-4-(((R)-1-(p-tolyl)propyl)amino)quinoline-3-carbonitrile]",0.868 µM,9.33 µM
"CC[C@@H](Nc1c(C#N)cnc2c(Cl)cc(N[C@@H](c3ccc(F)cc3)c3cn(C(C)C)nn3)cc12)c1ccccc1C [Example 366, 8-chloro-6-(((S)-(4-fluorophenyl)(1-isopropyl-1H-1,2,3-triazol-4-yl)methyl)amino)-4-(((R)-1-(o-tolyl)propyl)amino)quinoline-3-carbonitrile]",0.11 µM,1.3 µM
"N#Cc1cnc2c(Cl)cc(N[C@@H](c3ccc(F)cc3)c3c[nH]nn3)cc2c1Nc1ccc(F)cc1F [Example 367, (S)-8-chloro-4-((2,4-difluorophenyl)amino)-6-(((4-fluorophenyl)(1H-1,2,3-triazol-4-yl)methyl)amino)quinoline-3-carbonitrile]",0.297 µM,3.85 µM
"N#Cc1cnc2c(Cl)cc(N[C@@H](c3ccc(F)cc3)c3c[nH]nn3)cc2c1Nc1ccc(F)c(F)c1 [Example 368, (S)-8-chloro-4-((3,4-difluorophenyl)amino)-6-(((4-fluorophenyl)(1H-1,2,3-triazol-4-yl)methyl)amino)quinoline-3-carbonitrile]",0.05 µM,1.13 µM
"[2H][C@](Nc1cc(Cl)c2ncc(C#N)c(Nc3cnc(F)c(F)c3)c2c1)(c1cccc(C#N)c1)c1cn(C2CC2)nn1 [Example 369, (S)-8-chloro-6-(((3-cyanophenyl)(1-cyclopropyl-1H-1,2,3-triazol-4-yl)methyl-d)amino)-4-((5,6-difluoropyridin-3-yl)amino)quinoline-3-carbonitrile]",0.004 µM,0.093 µM
"[2H][C@](Nc1cc(Cl)c2ncc(C#N)c(Nc3cnc(F)c(F)c3)c2c1)(c1cccc(C#N)c1)c1c[nH]nn1 [Example 370, (S)-8-chloro-6-(((3-cyanophenyl)(1H-1,2,3-triazol-4-yl)methyl-d)amino)-4-((5,6-difluoropyridin-3-yl)amino)quinoline-3-carbonitrile]",0.005 µM,0.417 µM
"[2H][C@](Nc1cc(Cl)c2ncc(C#N)c(Nc3cnc(F)c(F)c3)c2c1)(c1ccc(F)cc1)c1cn(C2(C(F)(F)F)CC2)nn1 [Example 371, (S)-8-chloro-4-((5,6-difluoropyridin-3-yl)amino)-6-(((4-fluorophenyl)(1-(1-(trifluoromethyl)cyclopropyl)-1H-1,2,3-triazol-4-yl)methyl-d)amino)quinoline-3-carbonitrile]",0.154 µM,0.877 µM
"N#Cc1cc([C@H](Nc2cc(Cl)c3ncc(C#N)c(Nc4cnc(F)c(F)c4)c3c2)c2c[nH]nn2)ccc1F [Example 372, (S)-8-chloro-6-(((3-cyano-4-fluorophenyl)(1H-1,2,3-triazol-4-yl)methyl)amino)-4-((5,6-difluoropyridin-3-yl)amino)quinoline-3-carbonitrile]",0.011 µM,0.771 µM
"N#Cc1cnc2c(Cl)cc(N[C@@H](c3ccc(F)cc3)c3c[nH]nn3)cc2c1Nc1cccnc1F [Example 373, (S)-8-chloro-6-(((4-fluorophenyl)(1H-1,2,3-triazol-4-yl)methyl)amino)-4-((2-fluoropyridin-3-yl)amino)quinoline-3-carbonitrile]",3.01 µM,7.52 µM
"N#Cc1cnc2c(Cl)cc(N[C@@H](c3ccc(F)cc3)c3c[nH]nn3)cc2c1Nc1ccc(F)nc1 [Example 374, (S)-8-chloro-6-(((4-fluorophenyl)(1H-1,2,3-triazol-4-yl)methyl)amino)-4-((6-fluoropyridin-3-yl)amino)quinoline-3-carbonitrile]",0.161 µM,3.84 µM
"Cc1cc(Nc2c(C#N)cnc3c(Cl)cc(N[C@@H](c4ccc(F)cc4)c4c[nH]nn4)cc23)cnc1F [Example 375, (S)-8-chloro-4-((6-fluoro-5-methylpyridin-3-yl)amino)-6-(((4-fluorophenyl)(1H-1,2,3-triazol-4-yl)methyl)amino) quinoline-3-carbonitrile]",0.048 µM,1.26 µM
"N#Cc1cnc2c(Cl)cc(N[C@H](c3c[nH]nn3)c3ccccc3Cl)cc2c1Nc1cnc(F)c(F)c1 [Example 376, (S)-8-chloro-6-(((2-chlorophenyl)(1H-1,2,3-triazol-4-yl)methyl)amino)-4-((5,6-difluoropyridin-3-yl)amino)quinoline-3-carbonitrile]",0.047 µM,1.61 µM
"N#Cc1cnc2c(Cl)cc(N[C@@H](c3ccc(F)cc3)c3cn(C(F)F)nn3)cc2c1Nc1cnc(F)c(F)c1 [Example 377, (S)-8-chloro-6-(((1-(difluoromethyl)-1H-1,2,3-triazol-4-yl)(4-fluorophenyl)methyl)amino)-4-((5,6-difluoropyridin-3-yl)amino)quinoline-3-carbonitrile]",0.495 µM,> 10 µM
"N#Cc1cnc2c(Cl)cc(N[C@@H](c3ccc(F)cc3)c3cnn(C(F)F)n3)cc2c1Nc1cnc(F)c(F)c1 [Example 378, (S)-8-chloro-6-(((2-(difluoromethyl)-2H-1,2,3-triazol-4-yl)(4-fluorophenyl)methyl)amino)-4-((5,6-difluoropyridin-3-yl)amino)quinoline-3-carbonitrile]",> 10 µM,> 10 µM
"CC[C@@H](Nc1c(C#N)cnc2c(Cl)cc(N[C@@H](c3ccc(F)cc3)c3cn(C4(C(F)(F)F)CC4)nn3)cc12)c1ccccc1 [Example 379, 8-chloro-6-(((S)-(4-fluorophenyl)(1-(1-(trifluoromethyl)cyclopropyl)-1H-1,2,3-triazo1-4-yl)methyl)amino)-4-(((R)-1-phenylpropyl)amino)quinoline-3-carbonitrile]",0.03 µM,0.191 µM
"N#Cc1cnc2c(Cl)cc(N[C@@H](c3ccc(F)cc3)c3cn(C4CCOCC4)nn3)cc2c1Nc1cnc(F)c(F)c1 [Example 380, (S)-8-chloro-4-((5,6-difluoropyridin-3-yl)amino)-6-(((4-fluorophenyl) (1-(tetrahydro-2H-pyran-4-yl)-1H-1,2,3-triazol-4-yl)methyl)amino)quinoline-3-carbonitrile]",0.078 µM,1.28 µM
"[2H][C@](Nc1cc(Cl)c2ncc(C#N)c(Nc3cnc(F)c(F)c3)c2c1)(c1ccc(F)cc1)c1cn(C(C)(C)C)nn1 [Example 381, (S)-6-(((1-(tert-butyl)-1H-1,2,3-triazol-4-yl)(4-fluorophenyl)methyl-d)amino)-8-chloro-4-((5,6-difluoropyridin-3-yl)amino)quinoline-3-carbonitrile]",0.044 µM,0.644 µM
"[2H][C@](Nc1cc(Cl)c2ncc(C#N)c(Nc3cnc(F)c(F)c3)c2c1)(c1ccc(F)cc1)c1cn(C2CC2)nn1 [Example 382, (S)-8-chloro-6-(((1-cyclopropyl-1H-1,2,3-triazol-4-yl)(4-fluorophenyl)methyl-d)amino)-4-((5,6-difluoropyridin-3-yl)amino)quinoline-3-carbonitrile]",0.008 µM,0.323 µM
"CC(C)n1cc([C@@H](Nc2cc(Cl)c3ncc(C#N)c(Nc4ccc(F)c(Cl)c4)c3c2)c2cccc(S(=O)(=O)N(C)C)c2)nn1 [Example 383, (S)-3-(((8-chloro-4-((3-chloro-4-fluorophenyl)amino)-3-cyanoquinolin-6-yl)amino)(1-isopropyl-1H-1,2,3-triazol-4-yl)methyl)-N,N-dimethylbenzenesulfonamide]",0.011 µM,0.148 µM
"N#Cc1cnc2c(Cl)cc(N[C@@H](c3ccc(F)cc3)c3cn(CC4(O)CC4)nn3)cc2c1Nc1cnc(F)c(F)c1 [Example 384, (S)-8-chloro-4-((5,6-difluoropyridin-3-yl)amino)-6-(((4-fluorophenyl)(1-((1-hydroxycyclopropyl)methyl)-1H-1,2,3-triazol-4-yl)methyl)amino)quinoline-3-carbonitrile]",0.008 µM,0.832 µM
"CC(C)n1cc([C@@H](Nc2cc(Cl)c3ncc(C#N)c(Nc4cnc(F)c(F)c4)c3c2)c2cccc(-c3nccn3C)c2)nn1 [Example 385, (S)-8-chloro-4-((5,6-difluoropyridin-3-yl)amino)-6-(((1-isopropyl-1H-1,2,3-triazol-4-yl)(3-(1-methyl-1H-imidazol-2-yl)phenyl)methyl)amino) quinoline-3-carbonitrile]",0.004 µM,0.692 µM
"Cn1ccnc1-c1cccc([C@H](Nc2cc(Cl)c3ncc(C#N)c(Nc4cnc(F)c(F)c4)c3c2)c2c[nH]nn2)c1 [Example 386, (S)-8-chloro-4-((5,6-difluoropyridin-3-yl)amino)-6-(((3-(1-methyl-1H-imidazol-2-yl)phenyl)(1H-1,2,3-triazol-4-yl)methyl)amino)quinoline-3-carbonitrile]",0.005 µM,1.44 µM
